The source of these data is PMC8713164, “Development of a 1,2,4-Triazole-Based Lead Tankyrase Inhibitor: Part II” (Journal of Medicinal Chemistry, 2021).

In one data set the target is T1, TNKS2 (Homo sapiens, UniProt Q9H2K2).
T1 construct: TNKS2 (residues 873–1162); made in house
T1 sequence (Q9H2K2 873-1162): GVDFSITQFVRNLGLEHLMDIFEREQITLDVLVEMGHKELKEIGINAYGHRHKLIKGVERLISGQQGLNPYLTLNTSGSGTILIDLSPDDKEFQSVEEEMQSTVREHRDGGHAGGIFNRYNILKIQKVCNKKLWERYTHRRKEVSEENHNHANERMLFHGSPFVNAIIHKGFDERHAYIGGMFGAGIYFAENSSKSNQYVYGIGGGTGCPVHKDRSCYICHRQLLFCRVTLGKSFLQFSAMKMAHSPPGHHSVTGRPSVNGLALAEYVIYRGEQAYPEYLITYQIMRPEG
Briefly: TNKS2 biochemical assay (unreacted NAD+ fluorescence). Conditions: TNKS2 5 nM, 500 nM NAD+, 20 h; quadruplicates; 95% confidence intervals in parentheses; 24: averages of multiple independent measurements; read-out: IC50 TNKS2. As for the experimental part:
New compounds were prepared in half-log dilution series, and the reactions were carried out in quadruplicates with protein and compound controls to exclude the effect of compound autofluorescence. All reactions were performed at ambient temperature. TNKS1 (20 nM) or TNKS2 (5 nM) was incubated for 20 h in assay buffer (50 mM Bis-Tris propane (BTP), pH 7.0, 0.5 mM Tris(2-carboxyethyl)phosphine (TCEP), 0.01% Triton X-100) with compound and 10 μM or 500 nM NAD^+, respectively.

Data set [1] in a line: mouse peroral pharmacokinetic analysis. Conditions: mouse PO 5 mg/kg; for AUC(0-inf) at 24 h / AUC(0-t) at 24 h / Cmax at 24 h / Tmax at 24 h / half-life at 24 h / MRT inf at 24 h: IRC, in vivo; for MRT inf at 24 h: read-out: MRT 0 → ∞. It counts as in vivo. As for the experimental part:
The pharmacokinetic analyses in mice were performed according to the standard protocols of Medicilon as previously described[21] following approval by local animal experiment authorities (Shanghai, China) and in compliance with FELASA guidelines and recommendations. Three IRC mice were used per treatment group: 5 mg/kg 24 in 5% DMSO, 50% PEG400 (both Sigma-Aldrich), and 45% saline as vehicle.

Another data set is described as follows: kinetic solubility. The format is physicochemical. As to conditions: PBS pH = 7. As for the experimental part:
Kinetic solubility, microsomal stability, and plasma stability were determined following our internal protocol (Symeres). The Caco-2 and PPB determinations were performed by Cyprotex.

Data set [2] relates to WNT/β-catenin signaling. Nature of the data set: cellular (HEK293) WNT/β-catenin signaling luciferase reporter assay. It counts as cell-based, human. As to conditions: triplicates, 24: averages of multiple independent measurements.
On the set-up of data set [3]: method as in PMID 32511917. Conditions: cited from earlier work.
The subject of a further data set is Caco-2. As to conditions: cited from earlier work.
On the set-up of data set [4]: method as in PMID 32511917. Conditions: cited from earlier work. The source holds these as a separate data set.
Details of data set [5]: method as in PMID 32511917. Conditions: PBS pH = 7; cited from earlier work.
On the set-up of data set [6]: method as in PMID 32511917. Conditions: cited from earlier work. The source holds these as a separate data set.
For data set [7] the following is noted: mouse PO 5 mg/kg; cited from earlier work.
The subject of a further data set is A2A. As to conditions: 10 μM; cited from earlier work.
The test system of data set [8] is WNT/β-catenin signaling. As to conditions: cited from earlier work.
A further data set has as its system COLO 320DM cells. Conditions: cited from earlier work.
Data set [9] has as its system Cerep Safety panel 44 targets. Also noted: method as in PMID 32511917. Conditions: 10 μM; cited from earlier work.
Where [10] appears, read: Homo sapiens, HEK293, read-out: IC50 HEK293, HEK293 WNT/β-catenin signaling reporter assay.
The mark [11] stands for this setting: read-out: IC50 HEK293, HEK293 WNT/β-catenin signaling reporter assay.

In brackets after ≈: the same amount, converted by molar mass. Read-outs that look alike come from different tables or passages of the source.

The AUC(0-inf) is the area under the concentration-time curve extrapolated to infinity. The AUC(0-t) is the area under the concentration-time curve up to a stated or last time point. High values mean high exposure, low ones low exposure. What is called Cmax is the maximum level reached in the sampled fluid or tissue. One may read the Tmax as the time from dosing to the highest level. The half-life is how long it takes for the measured level to halve. A high value points to slow decline. As a reminder, the solubility (kinetic) is solubility judged after dilution from a stock solution rather than from solid. The GI50 is the concentration giving 50% growth inhibition.

Regarding `CCOc1ccc(-c2nnc([C@H]3C[C@H](NC(=O)c4ccnc5cc(F)cnc45)C3)n2-c2ccncc2)nc1` [Compound 18b, N-(trans-3-(5-(5-Ethoxypyridin-2-yl)-4-(pyridin-4-yl)-4H-1,2,4-triazol-3-yl)cyclobutyl)-7-fluoro-1,5-naphthyridine-4-carboxamide], on TNKS2, the IC50 was found to be 2.9 nM. Besides, in [1], the AUC(0-inf) at 24 h was determined as 322 ng·h/mL, the AUC(0-t) at 24 h was 319 ng·h/mL, the Cmax at 24 h came out at 285 ng/mL and the Tmax at 24 h was 15 min. Moreover, in data set [1], the half-life at 24 h was 60 min, the MRT inf at 24 h worked out at 93.6 min, the CL was found to be 260 mL/min/kg and the Vd is on record as 22.4 L/kg. This molecule returned a solubility (kinetic) in the data set “kinetic solubility” of over 80 µM. Moreover, in the data set with WNT/β-catenin signaling [2] (setting [10]), the IC50 was 6 nM. Also, the IC50 in the data set with WNT/β-catenin signaling [2] (setting [11]) is 6.4 nM.
For `CCOc1ccc(-c2nnc([C@H]3C[C@H](NC(=O)c4ccnc5cccnc45)C3)n2-c2ccc(C)s2)nc1` [Compound 22a, N-(trans-3-(5-(5-Ethoxypyridin-2-yl)-4-(5-methylthiophen-2-yl)-4H-1,2,4-triazol-3-yl)cyclobutyl)-1,5-naphthyridine-4-carboxamide], on TNKS2, the IC50 was determined as 0.73 nM. In data set [1], the AUC(0-inf) at 24 h is 547 ng·h/mL, the AUC(0-t) at 24 h stood at 543 ng·h/mL, the Cmax at 24 h is 779 ng/mL and the Tmax at 24 h stood at 15 min. In addition, in data set [1], the half-life at 24 h is 70.2 min, the MRT inf at 24 h was found to be 83.4 min, the CL was 152 mL/min/kg and the Vd was found to be 15.5 L/kg. Also, the kinetic solubility at 1 h in the data set “kinetic solubility” worked out at 50 µM (≈ 25.6 µg/mL). The IC50 with WNT/β-catenin signaling [2] (setting [10]) was found to be 0.81 nM.
For `CCOc1ccc(-c2nnc([C@H]3C[C@H](NC(=O)c4ccccn4)C3)n2-c2ccccc2F)nc1` [Compound 1], in data set [3], the “microsomal stability human CLint” value is on record as under 5 μL/min/mg protein. The “Caco-2 A–B: Papp” value with Caco-2 is 39.5 10^–6 cm/s. For the same molecule, the Ames test result in data set [4] is on record as “nongenotoxic”. In addition, the kinetic solubility in [5] is over 80 µM. Moreover, the “microsomal stability mouse CLint” value in data set [6] (mouse) was 27 μL/min/mg protein. Further, the CL in data set [7] is 34.8 mL/min/kg. Moreover, the “Cerep Safety panel inhibition of A2A” value in the data set on A2A is listed as 53%. In addition, the IC50 with WNT/β-catenin signaling [8] (HEK293 WNT/β-catenin signaling reporter assay) was 19 nM. In addition, in the data set on WNT/β-catenin signaling [8], the “HEK293 reporter assay pIC50 ± SEM” value is listed as 19 (7.75 ± 0.067). In the data set with COLO 320DM cells, the “COLO 320DM cells GI25” value was 94 nM and the concentration for 50% growth inhibition (GI50) was 650 nM. The “Cerep Safety panel 44 targets (overall result)” value in [9] was “clean”.
On to `CCOc1ccc(-c2nnc([C@H]3C[C@H](NC(=O)c4ccnc5cccnc45)C3)n2-c2ccccc2F)nc1` [Compound 15a], for which, in [6], the “metabolic stability in mouse microsomes” value is recorded as “high metabolic instability”.
For `Cc1cccc(-c2nnc([C@H]3C[C@H](NC(=O)c4cc(F)cc5nccnc45)C3)n2-c2ccccc2F)n1` [Compound 31b, N-(trans-3-(4-(2-Fluorophenyl)-5-(6-methylpyridin-2-yl)-4H-1,2,4-triazol-3-yl)cyclobutyl)-7-fluoroquinoxaline-5-carboxamide], the IC50 on TNKS2 came out at 1.6 nM. In [1], the AUC(0-inf) at 24 h turned out to be 5320 ng·h/mL, the AUC(0-t) at 24 h was found to be 5310 ng·h/mL, the Cmax at 24 h is 5800 ng/mL and the Tmax at 24 h was determined as 15 min. In data set [1], the half-life at 24 h was 35.4 min, the MRT inf at 24 h was determined as 88.2 min, the CL was 15.7 mL/min/kg and the Vd stood at 0.80 L/kg. In “kinetic solubility”, the solubility (kinetic) at 1 h came out at 13 µM (≈ 6.47 µg/mL). Also, the IC50 with WNT/β-catenin signaling [2] (setting [10]) was 0.17 nM. In addition, the IC50 with WNT/β-catenin signaling [2] (setting [11]) came to 0.169 nM.
Turning to `Cc1cccc(-c2nnc([C@H]3C[C@H](NC(=O)c4cccc5nccnc45)C3)n2-c2ccccc2F)n1` [Compound 31a, N-(trans-3-(4-(2-Fluorophenyl)-5-(6-methylpyridin-2-yl)-4H-1,2,4-triazol-3-yl)cyclobutyl)quinoxaline-5-carboxamide], the IC50 at TNKS2 was determined as 1.7 nM. For the same molecule, in [1], the AUC(0-inf) at 24 h was determined as 3400 ng·h/mL, the AUC(0-t) at 24 h was determined as 3400 ng·h/mL, the concentration peaked (Cmax at 24 h) at 2770 ng/mL and the Tmax at 24 h came out at 15 min. Besides, in data set [1], the half-life at 24 h is 45.6 min, the MRT inf at 24 h stood at 74.4 min, the CL came to 24.5 mL/min/kg and the Vd was 1.61 L/kg. Moreover, in “kinetic solubility”, the solubility (kinetic) is over 80 µM. For the same molecule, the IC50 in the data set with WNT/β-catenin signaling [2] (setting [10]) worked out at 1.5 nM.
